# Where two headings read alike, the source gives them in different places.
# Assays:
# [1] = biological target: T1, Recombinant human full-length Syk (Homo sapiens, UniProt P43405); experiment: Syk enzyme assay - radioactive filtration kinase assay; format: biochemical
# T1 construct: Recombinant human full-length Syk was supplied by Millipore; purchased Millipore
# Protocol: Syk Enzyme assay- Radioactive filtration kinase assay
# Recombinant human full-length Syk was supplied by Millipore. The activity of Syk kinase was assessed using a radioactive filtration kinase assay. […] The reaction was initiated by the addition of 14.5 µl of 0.36 µCi [γ-^33P] ATP (10 mCi/ml, PerkinElmer). This was prepared in a half-area NBS plate (Corning) and allowed to stand at room temperature for 40 min. 15 µl of reaction mixture was transferred to a filter plate (Millipore) previously pre-wetted with a solution of 75 mM phosphoric acid. The reaction was terminated with the addition of 200 µl phosphoric acid. The filter plate was washed three times under vacuum on a vacuum manifold (Millipore cat# MSVMHTS00) at 8" Hg vacuum level with 200 µl phosphoric acid per wash. 30 µl Optiphase™ Supermix (PerkinElmer) was added to each test well and allowed to incubate for at least 1 h before counting. Radioactivity counting was performed in a Wallac MicroBeta®, and the tyrosine phosphorylation activity by Syk was calculated.
# LAD2 cells = LAD2 cells assay (degranulation, β-hexosaminidase release); format: cell-based; details: Homo sapiens, 0.5 h; IgE-sensitized LAD2 cells, 30 min with compound, activated with 125 ng/ml streptavidin; released β-hexosaminidase; read-out: LAD2IC50
# Description: LAD2 is a human mast cell line depending on stem cell factor for its survival, maturation and differentiation. This mast cell line was established by the NIH from bone marrow aspirates from a patient with mast cell sarcoma. LAD2 cells resemble CD34+ - derived human mast cells as they have granules containing tryptase, histamine and β-hexosaminidase. They also express c-kit and FcεRI (Kirshenbaum, et al., Leukemia Research 27: 677-682, 2003).
# Sensitization of LAD2 cells
# Cells were sensitized (0.2x10^6 cells/ml) in its normal growth factor (Complete StemPro-34 SFM, Gibco 10639-011 containing StemPro-34 nutrient supplement (1/40); glutamine (2 mM) and supplemented with 100 ng/ml SCF) by adding 100 ng/ml of biotin-labeled IgE (USBiological) overnight (16-18 h, 37º, 5% CO2) in a humidified atmosphere (90%).
# Compounds were prepared from a 10^-2M stock in 100% DMSO to give seven successive 1/3 dilutions in DMSO. From each concentration, 2 further 1/10 dilutions were prepared in release buffer (137 mM NaCl, 2.70 mM KCI, 0.4 mM NaH2PO4, 5.6 mM (D)-glucose, 1.8 mM CaCl2, 1.3 mM MgSO4, 0.025% BSA). Finally, 5 µl from each diluted concentration were transferred into the assay plate (flat 96-well Nunc). The final compound concentrations tested ranged from 1x10^-5M to […] with a final proportion of DMSO in the assay of 0.1 %. Control wells were treated with 0.1 % DMSO.
# Sensitized LAD2 cells were centrifuged (300 g, 3 min, R.T.) and washed 2 times with release buffer. Cells were resuspended in release buffer and adjusted to a density of 0.2x10^6/ml. 45 µl of the adjusted cells were transfered to the assay plate (∼10,000cells/well) containg 5 µl of the final compound concentrations. LAD2 cells were incubated with the compound for 30 min (37 °C, 5% CO2 90% of humidity) and then activated with 125 ng/ml of streptavidin (Pierce 21125) for 30 min (37 °C, 5% CO2, 90% of humidity). After the activation, cells were centrifuged at 1200 g, 10 min, 12 °C and supernatats were removed and transfered to another well for determination of released β-hexosaminidase. Empty wells were filled with 50 µl of release buffer for determination of intracellular β-hexosaminidase. Cells were lysed with 2 cycles of freeze-thaw.
# Cells were incubated for 90 minutes, 37 °C with 1 mM β-hexosaminidase substrate (p-nitrophenyl N-acetyl-D-glucosamide, in citric buffer, pH 4.5). Reaction was stopped with 0.4 M glycine solution (pH 10.0) and the plate is read immediately at 405 nm.
# JAK3 (aa 795-1124) = biological target: T2, JAK3 (aa 795-1124) (Homo sapiens, UniProt P52333); experiment: In vitro JAK kinase assay (TR-FRET), JAK3; format: biochemical; details: ATP 0.6 µM, poly (GT)-Biotin 140 nM, 30 minutes at room temperature
# T2 construct: JAK3 (aa 795-1124); GST (N); purchased Carna Bioscences; host or cells: baculovirus expression system
# Protocol: (§1) In vitro JAK kinase Assays
# (§2) Compounds were screened for their ability to inhibit JAK1, JAK2 and JAK3 using the assays as indicated below.
# (§3) The catalytic domains of human JAK1 (aa 850-1154), JAK2 (aa 826-1132), JAK3 (aa 795-1124) and Tyk2 (aa 871-1187) were expressed as N-terminal GST-fusion proteins using a baculovirus expression system and were purchased from Carna Bioscences. The enzymatic activity was assayed using as substrate a biotinylated peptide, poly (GT)-Biotin (CisBio). The peptide concentration in the reactions was 60 nM for JAK1, 20 nM for JAK2, 140 nM for JAK3 and 50 nM for Tyk2. The degree of phosphorylation was detected by TR-FRET (time-resolved fluorescence energy transfer).
# (§4) IC50s of compounds were measured for each kinase in a reaction mixture containing the enzyme, ATP and the peptide in 8 mM MOPS (pH 7.0), 10 mM MgCl2, 0.05% β-mercaptoethanol, 0.45 mg/mL BSA. The ATP concentration in the reactions was 3 µM for JAK1, 0.2 µM for JAK2, 0.6 µM for JAK3 and 1.8 µM for Tyk2. The enzymatic reactions took place for 30 minutes at room temperature. Then, the reactions were stopped with 20 µL of quench detection buffer (50 mM HEPES, 0.5 M KF, EDTA 0.25 M, 0.1% (w/v) BSA, pH 7.5) containing 0.115 µg/mL of anti-phosphoTyr (PT66)-Cryptate (CisBio) and a variable concentration of SA-XL665 (CisBio) to keep the SA-B ratio constant. Incubate for 3 h and read on Victor 2V spectrofluorometer (PerkinElmer) set to read fluorescence resonance energy transfer.
# JAK2 (aa 826-1132) = biological target: T3, JAK2 (aa 826-1132) (Homo sapiens, UniProt O60674); experiment: In vitro JAK kinase assay (TR-FRET), JAK2; format: biochemical; details: ATP 0.2 µM, poly (GT)-Biotin 20 nM, 30 minutes at room temperature
# T3 construct: JAK2 (aa 826-1132); GST (N); purchased Carna Bioscences; host or cells: baculovirus expression system
# Protocol: as §1, §2, §3, §4
# human JAK1 (aa 850-1154) = biological target: T4, human JAK1 (aa 850-1154) (Homo sapiens, UniProt P23458); experiment: In vitro JAK kinase assay (TR-FRET), JAK1; format: biochemical; details: ATP 3 µM, poly (GT)-Biotin 60 nM, 30 minutes at room temperature
# T4 construct: human JAK1 (aa 850-1154); GST (N); purchased Carna Bioscences; host or cells: baculovirus expression system
# Protocol: as §1, §2, §3, §4
# [2] = Syk 1nM final, poly-GT 100 µg/ml, [γ-33P] ATP, 40 min at room temperature, read-out: Syk IC50
# T4 sequence (P23458 850-1154): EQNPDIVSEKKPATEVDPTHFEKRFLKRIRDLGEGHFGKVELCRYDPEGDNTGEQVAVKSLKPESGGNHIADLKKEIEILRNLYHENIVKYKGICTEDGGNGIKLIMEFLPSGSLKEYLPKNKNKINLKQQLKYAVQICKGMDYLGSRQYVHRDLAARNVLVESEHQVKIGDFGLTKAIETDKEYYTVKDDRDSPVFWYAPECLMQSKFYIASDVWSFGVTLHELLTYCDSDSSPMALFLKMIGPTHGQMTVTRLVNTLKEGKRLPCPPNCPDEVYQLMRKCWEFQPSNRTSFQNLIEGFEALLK
# T2 sequence (P52333 795-1124): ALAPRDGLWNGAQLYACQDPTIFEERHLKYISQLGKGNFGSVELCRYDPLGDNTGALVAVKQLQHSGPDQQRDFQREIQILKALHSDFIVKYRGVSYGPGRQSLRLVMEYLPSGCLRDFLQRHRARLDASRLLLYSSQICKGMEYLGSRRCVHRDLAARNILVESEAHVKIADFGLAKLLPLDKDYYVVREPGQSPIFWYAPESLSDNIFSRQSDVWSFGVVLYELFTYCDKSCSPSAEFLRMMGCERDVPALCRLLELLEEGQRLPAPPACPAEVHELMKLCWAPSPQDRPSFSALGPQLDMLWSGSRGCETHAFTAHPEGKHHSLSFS
# T3 sequence (O60674 826-1132): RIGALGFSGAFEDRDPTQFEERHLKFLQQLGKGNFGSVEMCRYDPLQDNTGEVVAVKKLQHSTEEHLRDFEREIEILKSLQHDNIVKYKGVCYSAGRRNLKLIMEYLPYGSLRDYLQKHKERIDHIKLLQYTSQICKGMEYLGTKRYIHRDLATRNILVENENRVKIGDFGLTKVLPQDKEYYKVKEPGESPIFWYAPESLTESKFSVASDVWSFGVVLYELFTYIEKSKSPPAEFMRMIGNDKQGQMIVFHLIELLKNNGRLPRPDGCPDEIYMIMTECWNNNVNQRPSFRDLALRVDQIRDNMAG
smiles,measurement,setting,value
"O=C(O)c1cccc(C(=O)Nc2cc(Nc3cnccn3)nc(-c3ccnc(N4CCNCC4)c3)c2)c1 [Example 88, 3-({[2'-Piperazin-1-yl-6-(pyrazin-2-ylamino)-2,4'-bipyridin-4-yl]amino}carbonyl) benzoic acid]",IC50,[1]; [2],6 nM
same,IC50,LAD2 cells,81 nM
same,IC50,JAK3 (aa 795-1124),100 to 1000 nM
same,IC50,JAK2 (aa 826-1132),< 100 nM
"O=C(O)c1ccc(C(=O)Nc2cc(Nc3cnccn3)nc(-c3ccnc(N4CCNCC4)c3)c2)cc1 [Example 79, 4-({[2'-Piperazin-1-yl-6-(pyrazin-2-ylamino)-2,4'-bipyridin-4-yl]amino}carbonyl) benzoic acid]",IC50,[1],8 nM
same,IC50,LAD2 cells,140 nM
same,IC50,JAK3 (aa 795-1124),100 to 1000 nM
same,IC50,JAK2 (aa 826-1132),< 100 nM
"O=C(Nc1cc(Nc2cnccn2)nc(-c2ccnc(N3CCNCC3)c2)c1)c1cccnc1 [Example 85, N-[2'-Piperazin-1-yl-6-(pyrazin-2-ylamino)-2,4'-bipyridin-4-yl]nicotinamide]",IC50,[1],6 nM
same,IC50,LAD2 cells,123 nM
same,IC50,JAK3 (aa 795-1124),100 to 1000 nM
same,IC50,JAK2 (aa 826-1132),< 100 nM
same,IC50,human JAK1 (aa 850-1154),> 1000 nM
"O=C(O)C[C@H](Cc1ccccc1)C(=O)Nc1cc(Nc2cnccn2)nc(-c2ccnc(N3CCNCC3)c2)c1 [Example 100, (3S)-3-Benzyl-4-oxo-4-{[2'-piperazin-1-yl-6-(pyrazin-2-ylamino)-2,4'-bipyridin-4-yl]amino}butanoic acid]",IC50,JAK3 (aa 795-1124),100 to 1000 nM
same,IC50,JAK2 (aa 826-1132),100 to 1000 nM
same,IC50,human JAK1 (aa 850-1154),> 1000 nM
"COc1cccc(CC(=O)Nc2cc(Nc3cnccn3)nc(-c3ccnc(N4CCNCC4)c3)c2)c1 [Example 78, 2-(3-Methoxyphenyl)-N-[2'-piperazin-1-yl-6-(pyrazin-2-ylamino)-2,4'-bipyridin-4-yl]acetamide]",IC50,JAK3 (aa 795-1124),100 to 1000 nM
same,IC50,JAK2 (aa 826-1132),< 100 nM
same,IC50,human JAK1 (aa 850-1154),> 1000 nM
"O=C(Nc1cc(Nc2cnccn2)nc(-c2ccnc(N3CCNCC3)c2)c1)c1ccc(F)cc1 [Example 80, 4-Fluoro-N-[2'-piperazin-1-yl-6-(pyrazin-2-ylamino)-2,4'-bipyridin-4-yl]benzamide]",IC50,[1]; [2],6 nM
same,IC50,LAD2 cells,290 nM
same,IC50,JAK3 (aa 795-1124),100 to 1000 nM
same,IC50,JAK2 (aa 826-1132),< 100 nM
same,IC50,human JAK1 (aa 850-1154),> 1000 nM
